Experiment [1] concerns the target T1, Short transient receptor potential channel 4 (Mus musculus, UniProt Q9QUQ5).
T1 sequence (Q9QUQ5 whole entry): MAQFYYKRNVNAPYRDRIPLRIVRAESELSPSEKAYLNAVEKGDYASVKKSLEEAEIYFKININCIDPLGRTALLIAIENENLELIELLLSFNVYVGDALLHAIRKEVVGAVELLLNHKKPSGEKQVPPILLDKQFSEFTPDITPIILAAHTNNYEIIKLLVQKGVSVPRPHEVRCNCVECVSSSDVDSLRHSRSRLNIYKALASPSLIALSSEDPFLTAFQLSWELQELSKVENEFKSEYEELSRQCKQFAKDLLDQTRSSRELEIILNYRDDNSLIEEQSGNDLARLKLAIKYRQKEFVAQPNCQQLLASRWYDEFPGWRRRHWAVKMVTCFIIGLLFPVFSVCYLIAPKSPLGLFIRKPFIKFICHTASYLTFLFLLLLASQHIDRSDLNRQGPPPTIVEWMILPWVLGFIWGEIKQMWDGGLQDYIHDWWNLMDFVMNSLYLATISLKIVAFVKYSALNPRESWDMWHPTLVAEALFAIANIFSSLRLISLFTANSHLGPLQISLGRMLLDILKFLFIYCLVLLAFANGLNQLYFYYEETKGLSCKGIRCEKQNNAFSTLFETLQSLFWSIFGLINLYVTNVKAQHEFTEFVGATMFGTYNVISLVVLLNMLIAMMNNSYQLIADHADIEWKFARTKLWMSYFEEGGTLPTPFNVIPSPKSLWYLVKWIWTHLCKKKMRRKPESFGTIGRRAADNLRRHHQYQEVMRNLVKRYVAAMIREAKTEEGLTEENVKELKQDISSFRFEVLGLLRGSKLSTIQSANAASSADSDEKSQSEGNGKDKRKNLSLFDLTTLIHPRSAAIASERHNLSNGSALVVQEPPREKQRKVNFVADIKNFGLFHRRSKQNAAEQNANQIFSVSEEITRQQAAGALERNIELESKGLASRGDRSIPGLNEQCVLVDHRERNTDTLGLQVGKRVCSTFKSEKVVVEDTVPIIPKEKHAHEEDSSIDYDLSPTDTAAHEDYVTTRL
The experiment is described as follows: block of DAMGO-driven TRPC4 calcium entry – cell-based, HEK293 TRPC4/mu-opioid, Fluo-4 calcium, dose response (AID 434942).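 Further: potency of inhibitors blocking the TRPC4 calcium response.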 The format is functional.

The nature of experiment [2]: reduced cellular PGC1a acetyl-lysine signal – cell-based, cherry-picked samples, dose response (AID 720514).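 Further: potency may reflect raised or lowered acetylation signal.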 The format is functional.
The target of the next experiment is Mu-type opioid receptor (Homo sapiens, UniProt P35372). The experiment can be described thus: Late-stage results from the probe development effort to identify antagonists of OPRK1: luminescence-based cell-based dose response OPRM1 counterscreen, Set 2. The format is functional.
The target of experiment [3] is Kappa-type opioid receptor (Homo sapiens, UniProt P41145). The experiment is described as follows: Late-stage fluorescence-based cell-based dose response assay for antagonists of kappa opioid receptor 1 (OPRK1). The format is functional.
For experiment [4], the target named is Delta-type opioid receptor (Homo sapiens, UniProt P41143). The experiment is described as follows: Late-stage results from the probe development effort to identify antagonists of OPRK1: fluorescence-based cell-based dose response OPRD1 counterscreen, Set 2. The format is functional.
The target of experiment [5] is Sphingosine 1-phosphate receptor 1 (Homo sapiens, UniProt P21453). The experiment can be described thus: Late-stage counterscreen for antagonists of kappa opioid receptor 1 (OPRK1): fluorescence-based cell-based dose response assay to identify antagonists of Sphingosine 1-Phosphate Receptor 1 (S1P1). The format is functional. For orientation: Counterscreens check selectivity or assay interference.

A short description of experiment [6]: viability reduction in hepatoma cells – cell-based, ATP luminescence, dry powder, Set4, cytotoxicity control, dose response (AID 743143). The format is functional. Particulars: HepG2.
Experiment [7] concerns the target T2, Replicative DNA helicase DnaB (Mycobacterium tuberculosis, UniProt P9WMR3).
T2 sequence (P9WMR3 whole entry): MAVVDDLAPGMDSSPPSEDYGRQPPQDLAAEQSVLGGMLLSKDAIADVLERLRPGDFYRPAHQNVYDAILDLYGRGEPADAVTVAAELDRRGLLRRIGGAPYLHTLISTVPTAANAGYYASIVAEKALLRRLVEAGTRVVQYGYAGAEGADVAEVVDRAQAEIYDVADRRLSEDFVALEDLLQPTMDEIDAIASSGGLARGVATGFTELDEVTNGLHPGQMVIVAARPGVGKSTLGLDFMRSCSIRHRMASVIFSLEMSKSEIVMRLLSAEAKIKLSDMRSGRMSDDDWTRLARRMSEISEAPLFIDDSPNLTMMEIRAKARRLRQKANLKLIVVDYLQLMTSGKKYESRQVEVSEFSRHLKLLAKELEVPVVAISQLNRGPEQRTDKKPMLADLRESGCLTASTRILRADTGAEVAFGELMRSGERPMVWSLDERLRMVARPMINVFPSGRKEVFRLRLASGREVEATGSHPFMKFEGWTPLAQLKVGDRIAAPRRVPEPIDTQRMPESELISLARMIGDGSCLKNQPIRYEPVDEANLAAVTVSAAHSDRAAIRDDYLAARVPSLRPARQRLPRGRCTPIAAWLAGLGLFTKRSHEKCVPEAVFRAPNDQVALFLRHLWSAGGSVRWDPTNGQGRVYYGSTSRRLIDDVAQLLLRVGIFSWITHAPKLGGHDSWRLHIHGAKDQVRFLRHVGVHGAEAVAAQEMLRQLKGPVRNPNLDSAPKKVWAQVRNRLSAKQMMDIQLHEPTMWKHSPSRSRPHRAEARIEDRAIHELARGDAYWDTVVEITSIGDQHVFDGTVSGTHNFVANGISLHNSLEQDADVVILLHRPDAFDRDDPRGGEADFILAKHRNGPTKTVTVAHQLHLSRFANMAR
The experiment is described as follows: DnaB intein splicing inhibitors, dose response, biochemical, cell-free fluorescence (AID 449749). The format is functional.

Experiment [8] is described as follows: viability of PTEN-deleted HCT116 cells – cell-based, HCT116 PTEN knockout, dose response (AID 1047).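 Further: HCT116 colon tumor cells with PTEN knocked out; cells exposed to compound for 60 hours before readout; potency for loss of cell viability measured by luminescence.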 The format is functional.
A short description of experiment [9]: alpha-synuclein stem-loop luciferase translation blockers – H4 neuroglioma cells, luminescence, confirmation (AID 1988). The format is functional, cell-based.
A short description of experiment [10]: viability of HCT116 lacking mutant beta-catenin – cell-based, human colon tumor, dose response (AID 1045).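 Further: HCT116 colon tumor cells with beta catenin knocked out; cells exposed to compound for 60 hours.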 The format is functional.
A further experiment addresses T3, Protein RecA (Mycobacterium tuberculosis, UniProt P9WHJ3).
T3 sequence (P9WHJ3 whole entry): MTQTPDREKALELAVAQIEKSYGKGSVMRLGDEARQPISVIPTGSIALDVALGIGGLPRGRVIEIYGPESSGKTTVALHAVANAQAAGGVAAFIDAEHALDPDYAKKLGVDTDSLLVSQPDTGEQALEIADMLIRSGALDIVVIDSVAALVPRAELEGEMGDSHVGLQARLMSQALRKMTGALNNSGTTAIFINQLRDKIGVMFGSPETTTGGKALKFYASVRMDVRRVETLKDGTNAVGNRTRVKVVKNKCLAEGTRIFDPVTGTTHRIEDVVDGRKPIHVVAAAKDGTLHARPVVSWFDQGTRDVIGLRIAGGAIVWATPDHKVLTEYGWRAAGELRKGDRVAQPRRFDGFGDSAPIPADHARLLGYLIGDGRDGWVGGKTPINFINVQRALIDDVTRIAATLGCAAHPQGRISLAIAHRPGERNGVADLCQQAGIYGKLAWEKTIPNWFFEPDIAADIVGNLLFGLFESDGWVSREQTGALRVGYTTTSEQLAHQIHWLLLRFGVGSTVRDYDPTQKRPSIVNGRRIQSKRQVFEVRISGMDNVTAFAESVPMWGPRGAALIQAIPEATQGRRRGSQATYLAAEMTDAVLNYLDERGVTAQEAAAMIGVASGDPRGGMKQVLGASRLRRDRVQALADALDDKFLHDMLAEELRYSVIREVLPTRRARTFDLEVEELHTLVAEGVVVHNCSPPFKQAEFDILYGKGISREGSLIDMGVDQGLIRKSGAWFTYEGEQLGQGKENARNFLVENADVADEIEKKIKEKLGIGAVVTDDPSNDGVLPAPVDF
The experiment is described as follows: Fluorescence Cell-Free Homogeneous Dose Retest to Identify Inhibitors of RecA-Intein Splicing Activity. [Related pubchem assays (depositor defined):AID2097, AID2223, AID489010, AID492950]. The format is functional.

Experiment [11] can be described thus: luciferase reporter signal suppression in cells – H4 neuroglioma cells, luminescence, dose response (AID 1990). The format is functional, cell-based. In general terms: Reporter assays use an easily measured gene product as a stand-in for the process of interest.
In experiment [12] the target is Lysine-specific demethylase 4C (Homo sapiens, UniProt Q9H3R0). The experiment is described as follows: inhibition of JMJD2C H3K9me3 demethylation – biochemical, DELFIA europium, cherry-picked samples, dose response (AID 488835). The format is functional.
The test system of a further experiment is INS1. The experiment can be described thus: INS-1E survival protection against cytokine death – cell-based, luminescence, retest, dose response (AID 449756).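 Further: cell death triggered by IL-1 beta plus TNF-alpha plus IFN-gamma mixture; protective hits raise ATP signal compared with cytokine alone wells.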 The format is functional. Particulars: Rattus norvegicus.
Experiment [13] is described as follows: viability loss in MITF-independent A375 cells – cell-based, CellTiter-Glo luminescence, dry powder, set 2, counter-screen for MITF inhibitor project, dose response (AID 624489).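 Further: actives are compounds lowering A375 viability meaning general cytotoxicity.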 Particulars: A-375. The format is functional. (ATP-based viability assays read luminescence as a measure of living cells.)
Experiment [14] in a line: Luminescence Cell-Based Dose Response HTS to Identify Inhibitors of 5'UTR Stem-Loop Driven Prion Protein mRNA Translation in H4 Neuroglioblastoma Cells. [Related pubchem assays: 1827 (Project Summary), 1813 (Primary HTS)]. The format is functional.
For experiment [15], the target named is T4, Microphthalmia-associated transcription factor (Homo sapiens, UniProt O75030).
T4 sequence (O75030 whole entry): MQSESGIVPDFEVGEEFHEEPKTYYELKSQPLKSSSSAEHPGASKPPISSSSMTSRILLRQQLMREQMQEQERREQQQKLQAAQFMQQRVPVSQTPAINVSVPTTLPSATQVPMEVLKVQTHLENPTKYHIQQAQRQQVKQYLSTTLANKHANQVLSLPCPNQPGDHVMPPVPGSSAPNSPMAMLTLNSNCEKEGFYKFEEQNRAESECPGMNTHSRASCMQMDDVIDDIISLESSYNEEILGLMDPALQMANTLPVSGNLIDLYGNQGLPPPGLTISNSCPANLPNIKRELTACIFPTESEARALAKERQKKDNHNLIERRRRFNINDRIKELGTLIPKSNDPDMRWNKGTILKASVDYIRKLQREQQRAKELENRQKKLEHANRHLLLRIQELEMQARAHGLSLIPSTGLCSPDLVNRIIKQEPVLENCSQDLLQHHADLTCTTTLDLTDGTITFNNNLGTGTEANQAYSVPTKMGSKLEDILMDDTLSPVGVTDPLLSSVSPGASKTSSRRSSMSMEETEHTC
The experiment is described as follows: reducers of TRPM1 reporter luminescence, concentration series – cell-based, SK-MEL-5, cherry-picked, set 3, MITF inhibitor project, dose response (AID 493073).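 Further: SK-MEL-5 melanoma cells with luciferase driven by the MITF target TRPM1 promoter.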 The format is functional.

Experiment [16] can be described thus: HEK-293T viability loss after treatment – luminescence, T-cell screen hits, cytotoxicity control for TCR NF-kB inhibitor project, dose response (AID 489026).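 Further: cells exposed to compound about 14 hours before the viability readout.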 The format is functional, cell-based.
Experiment [17] can be described thus: cytotoxicity in MITF-independent A375 cells – cell-based, CellTiter-Glo luminescence, dry powder, set 4, counter-screen for MITF inhibitor project, dose response (AID 624364).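 Further: A375 melanoma cells are MITF independent so this is a counter screen.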 The format is functional. Particulars: A-375.

Active and inactive are the calls of the source.

For orientation: EC50 means the concentration that produces a half-maximal response. One may read the AC50 as the concentration at which the activity in the assay is half-maximal. By IC50 is commonly meant the concentration that gives 50% inhibition.

Mu-type opioid receptor, sequence (P35372 whole entry): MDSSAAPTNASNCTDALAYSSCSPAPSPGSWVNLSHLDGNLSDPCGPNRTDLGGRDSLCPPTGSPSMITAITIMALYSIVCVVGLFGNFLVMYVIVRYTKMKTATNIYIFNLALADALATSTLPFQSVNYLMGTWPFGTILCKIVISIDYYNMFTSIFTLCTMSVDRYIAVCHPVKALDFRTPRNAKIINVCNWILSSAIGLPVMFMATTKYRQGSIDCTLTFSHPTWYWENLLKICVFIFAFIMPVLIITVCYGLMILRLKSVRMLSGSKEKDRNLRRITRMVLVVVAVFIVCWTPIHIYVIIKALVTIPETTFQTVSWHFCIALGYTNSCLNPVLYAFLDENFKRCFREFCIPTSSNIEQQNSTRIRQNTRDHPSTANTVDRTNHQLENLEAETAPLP
Delta-type opioid receptor, sequence (P41143 whole entry): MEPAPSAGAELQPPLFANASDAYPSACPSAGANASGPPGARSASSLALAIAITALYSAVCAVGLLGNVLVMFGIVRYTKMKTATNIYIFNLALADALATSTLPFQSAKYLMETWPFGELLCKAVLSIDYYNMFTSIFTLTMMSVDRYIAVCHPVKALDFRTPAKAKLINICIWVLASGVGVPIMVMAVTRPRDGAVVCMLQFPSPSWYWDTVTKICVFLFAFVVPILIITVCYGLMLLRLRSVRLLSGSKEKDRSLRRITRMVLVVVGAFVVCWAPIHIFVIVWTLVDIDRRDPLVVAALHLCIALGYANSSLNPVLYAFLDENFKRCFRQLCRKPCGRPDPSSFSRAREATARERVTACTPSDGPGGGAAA
Lysine-specific demethylase 4C, sequence (Q9H3R0 whole entry): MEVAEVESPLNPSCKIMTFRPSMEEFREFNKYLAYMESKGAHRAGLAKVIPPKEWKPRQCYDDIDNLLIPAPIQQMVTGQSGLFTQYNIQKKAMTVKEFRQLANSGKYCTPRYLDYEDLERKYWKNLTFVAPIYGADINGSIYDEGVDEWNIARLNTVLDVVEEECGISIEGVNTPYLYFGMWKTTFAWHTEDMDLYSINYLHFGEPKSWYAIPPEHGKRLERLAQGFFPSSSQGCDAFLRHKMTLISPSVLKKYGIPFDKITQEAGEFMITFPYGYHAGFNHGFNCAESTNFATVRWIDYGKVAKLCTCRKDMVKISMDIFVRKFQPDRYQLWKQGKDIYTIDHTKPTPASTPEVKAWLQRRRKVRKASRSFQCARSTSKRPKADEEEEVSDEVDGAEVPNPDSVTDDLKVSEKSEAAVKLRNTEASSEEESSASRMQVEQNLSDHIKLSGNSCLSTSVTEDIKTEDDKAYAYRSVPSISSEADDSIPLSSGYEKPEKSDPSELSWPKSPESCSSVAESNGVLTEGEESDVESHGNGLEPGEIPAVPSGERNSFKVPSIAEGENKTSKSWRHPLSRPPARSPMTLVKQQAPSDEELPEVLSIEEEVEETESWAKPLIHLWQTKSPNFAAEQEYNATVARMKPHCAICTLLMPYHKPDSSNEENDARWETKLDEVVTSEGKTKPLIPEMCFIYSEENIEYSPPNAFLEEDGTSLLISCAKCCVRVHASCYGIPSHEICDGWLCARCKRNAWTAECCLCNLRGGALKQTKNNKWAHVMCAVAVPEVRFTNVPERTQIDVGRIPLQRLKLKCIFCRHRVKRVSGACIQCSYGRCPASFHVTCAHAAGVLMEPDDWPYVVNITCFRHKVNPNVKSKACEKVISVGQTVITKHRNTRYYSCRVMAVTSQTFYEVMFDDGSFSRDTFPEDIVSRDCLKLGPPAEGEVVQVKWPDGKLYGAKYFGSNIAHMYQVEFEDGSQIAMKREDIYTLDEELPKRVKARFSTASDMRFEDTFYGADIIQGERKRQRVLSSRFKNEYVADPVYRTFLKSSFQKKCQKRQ
Kappa-type opioid receptor, sequence (P41145 whole entry): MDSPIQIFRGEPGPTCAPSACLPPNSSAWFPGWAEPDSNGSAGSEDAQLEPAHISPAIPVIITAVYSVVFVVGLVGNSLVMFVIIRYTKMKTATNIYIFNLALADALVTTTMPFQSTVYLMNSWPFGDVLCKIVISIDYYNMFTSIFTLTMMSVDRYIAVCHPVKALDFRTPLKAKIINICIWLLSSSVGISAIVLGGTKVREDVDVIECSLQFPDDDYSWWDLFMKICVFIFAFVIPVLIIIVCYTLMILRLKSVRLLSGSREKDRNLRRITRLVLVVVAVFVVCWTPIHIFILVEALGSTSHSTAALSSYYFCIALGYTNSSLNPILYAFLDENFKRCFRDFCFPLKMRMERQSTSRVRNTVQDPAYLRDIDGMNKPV
Sphingosine 1-phosphate receptor 1, sequence (P21453 whole entry): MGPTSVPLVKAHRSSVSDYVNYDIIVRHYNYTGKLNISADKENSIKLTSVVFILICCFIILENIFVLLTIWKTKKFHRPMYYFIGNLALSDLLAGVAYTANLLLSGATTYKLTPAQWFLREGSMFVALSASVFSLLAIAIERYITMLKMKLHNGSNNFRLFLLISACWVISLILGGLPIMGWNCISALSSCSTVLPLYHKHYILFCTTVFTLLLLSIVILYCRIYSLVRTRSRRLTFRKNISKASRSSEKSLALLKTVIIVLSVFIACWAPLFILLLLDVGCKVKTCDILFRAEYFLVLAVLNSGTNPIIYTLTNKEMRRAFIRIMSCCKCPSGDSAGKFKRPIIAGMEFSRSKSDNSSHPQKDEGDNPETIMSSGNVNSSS

As for `CCOC(=O)C1(Cc2cccc(F)c2)CCN(Cc2c(C)nn(CC)c2C)CC1`, the EC50 in [1] was 1.06 µM (active). Also, the AC50 in experiment [2] is 28.8 µM (active).
Regarding `COc1cc([N+](=O)[O-])c(OC)cc1SCc1nnc(S)n1-c1ccc(C)cc1`, the IC50 on Mu-type opioid receptor was > 50 µM (inactive); in experiment [3] it was 2.2 µM (active); in [4], > 50 µM (inactive); in [5] it was > 50 µM (inactive).
For `O=C(CCn1cnc2ccccc2c1=O)NC1CCCc2ccccc21` (stereo not given), the AC50 in [6] is > 52 µM (inactive).
With `CC(=O)N(C)C1=C(N2CCOCC2)C(=O)c2ccccc2C1=O`, the AC50 is 51.3 µM (active) in [7]; 31.2 µM (active) in experiment [12]; 1.67 µM (active) in the experiment on INS1; 13.9 µM (active) in experiment [13]; 3.5 µM (active) in experiment [15]; 32.1 µM (active) in experiment [17]. Further, the EC50 is 1.91 µM (active) in [8]; 7.74 µM (active) in experiment [9]; 1.81 µM (active) in [10]; 38.4 µM (active) on Protein RecA; 10.8 µM (active) in experiment [11]; 11.7 µM (active) in experiment [14]. Moreover, the IC50 in experiment [16] is 4.03 µM (active).

(Values after ChEMBL document CHEMBL1201862, “PubChem BioAssay data set” (2004).)
